Literature values as cited in patent US20110251275A1, “OMEGA-3 FATTY ACIDS FOR REDUCTION OF LP-PLA2 LEVELS” (priority 2006, published 2011).

Tested on: Lp-PLA2
Conditions: for reduction of Lp-PLA2: Tsimihodimos et al. 2002, patients treated

SMILES	reduced Lp-PLA2 levels (O'Donoghue et al. 2006)	reduction of Lp-PLA2
CC(C)c1c(C(=O)Nc2ccccc2)c(-c2ccccc2)c(-c2ccc(F)cc2)n1CC[C@@H](O)C[C@@H](O)CC(=O)O [atorvastatin]	20%	28-42%
CC(C)OC(=O)C(C)(C)Oc1ccc(C(=O)c2ccc(Cl)cc2)cc1 [fenofibrate, 2-[4-(4-chlorobenzoyl)phenoxy]-2-methyl-propanoic acid, 1-methylethyl ester]		22-28%
